Data taken from article PMC8893300, “A Dynamic Mass Redistribution Assay for the Human Sweet Taste Receptor Uncovers G-Protein Dependent Biased Ligands” (Frontiers in Pharmacology, 2022).
pEC50: −log10 of the molar value. Like-named read-outs stand apart in the source and are kept apart here.

Columns and labels:
Assay type in all cases: cell-based
[1] = target: T1, human sweet taste receptor (hT1R2/hT1R3) (Homo sapiens, UniProt Q7RTX0+Q8TE23); assay: DMR assay (Epic reader) on R2/R3 U2OS cells, endogenous G proteins
T1 construct: expressed in transfected cells
T1 sequence (Q8TE23 20-839): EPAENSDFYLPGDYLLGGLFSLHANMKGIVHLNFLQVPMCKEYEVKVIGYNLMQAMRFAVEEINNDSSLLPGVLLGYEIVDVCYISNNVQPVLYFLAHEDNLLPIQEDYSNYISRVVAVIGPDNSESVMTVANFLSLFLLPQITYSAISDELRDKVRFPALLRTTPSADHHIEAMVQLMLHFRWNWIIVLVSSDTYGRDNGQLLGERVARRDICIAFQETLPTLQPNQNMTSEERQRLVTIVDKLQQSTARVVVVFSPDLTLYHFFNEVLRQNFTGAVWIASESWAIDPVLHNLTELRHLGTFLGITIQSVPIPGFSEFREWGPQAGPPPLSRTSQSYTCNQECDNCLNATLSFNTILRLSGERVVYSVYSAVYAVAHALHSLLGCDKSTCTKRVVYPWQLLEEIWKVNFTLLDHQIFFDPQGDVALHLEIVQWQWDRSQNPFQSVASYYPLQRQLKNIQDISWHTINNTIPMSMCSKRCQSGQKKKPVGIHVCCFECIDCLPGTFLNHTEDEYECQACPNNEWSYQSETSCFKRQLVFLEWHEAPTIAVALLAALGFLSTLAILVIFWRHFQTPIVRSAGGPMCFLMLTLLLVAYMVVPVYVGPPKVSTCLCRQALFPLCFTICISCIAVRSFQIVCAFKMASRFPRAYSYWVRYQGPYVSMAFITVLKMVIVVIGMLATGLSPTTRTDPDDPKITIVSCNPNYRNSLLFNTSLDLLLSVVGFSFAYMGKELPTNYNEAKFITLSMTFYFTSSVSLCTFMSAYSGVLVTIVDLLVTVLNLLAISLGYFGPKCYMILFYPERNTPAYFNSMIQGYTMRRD
T1 sequence (Q7RTX0 21-852): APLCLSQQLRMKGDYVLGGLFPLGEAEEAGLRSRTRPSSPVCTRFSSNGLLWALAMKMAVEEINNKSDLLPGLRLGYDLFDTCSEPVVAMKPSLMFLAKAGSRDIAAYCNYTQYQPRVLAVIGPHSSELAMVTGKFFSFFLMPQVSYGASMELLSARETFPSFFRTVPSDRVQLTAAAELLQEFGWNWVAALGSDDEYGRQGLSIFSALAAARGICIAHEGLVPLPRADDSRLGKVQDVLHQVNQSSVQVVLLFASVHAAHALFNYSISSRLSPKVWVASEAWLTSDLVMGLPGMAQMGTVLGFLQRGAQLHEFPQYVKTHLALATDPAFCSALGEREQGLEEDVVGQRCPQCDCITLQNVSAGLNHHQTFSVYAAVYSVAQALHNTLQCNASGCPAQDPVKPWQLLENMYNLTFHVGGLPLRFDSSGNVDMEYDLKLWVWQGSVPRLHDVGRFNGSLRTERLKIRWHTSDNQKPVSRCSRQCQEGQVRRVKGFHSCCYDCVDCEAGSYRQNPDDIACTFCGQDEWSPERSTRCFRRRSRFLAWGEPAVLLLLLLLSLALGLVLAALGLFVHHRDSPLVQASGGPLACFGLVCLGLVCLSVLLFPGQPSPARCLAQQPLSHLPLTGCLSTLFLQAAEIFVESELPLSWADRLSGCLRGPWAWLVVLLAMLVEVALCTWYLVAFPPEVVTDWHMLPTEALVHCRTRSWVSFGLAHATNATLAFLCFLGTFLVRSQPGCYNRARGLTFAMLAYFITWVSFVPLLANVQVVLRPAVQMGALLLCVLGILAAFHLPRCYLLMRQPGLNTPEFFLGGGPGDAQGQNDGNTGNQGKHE
Method: (§1) The plates were incubated in the tissue culture hood for 20 min to allow cells to settle evenly at the bottom of the microplate and further cultured at 37°C in an atmosphere of 5% CO2 for 18–24 h. The next day, the cells were subjected to functional analysis using DMR. […] When indicated, data for agonist dose-responses were normalized to data obtained with a maximum concentration of sucralose (1 mM) and then fitted and plotted using GraphPad Prism (San Diego, CA) and non-linear regression analysis.
(§2) This value, that we termed pEC50Ratio (sucralose) or pEC50R (sucralose), was calculated with EC50 values obtained in the two assay systems. This transformation also allowed determination of an average and a standard error for the pEC50R (sucralose). The two sets of data (DMR and FLIPR data) were then analyzed with an un-paired t-test (α = 0.05). To calculate relative efficacy bias between the two assays, we captured the top asymptote value from each activity-normalized dose-response curve, as provided by the curve fit, calculated an average and a standard deviation (sd) for each agonist and then analyzed the data pairs with an un-paired t-test (α = 0.05). […] The following steps were followed: 1) Using the PRISM software, we re-analyzed each ligand’s dose-response data obtained in each assay with non-linear regression and the users-defined equation “New Operational Model with TauKa ratios” and retrieved logR values from the fits. 2) Subtracted each ligand’s logR value with that of our standard, the sucralose logR value, obtained from the same data set (each ligand dose-response assay data used in this analysis was accompanied with a sucralose dose-response ran on the same day), producing the ΔlogR value for leach ligand in each assay. 3) Calculated the mean and SEM from ΔlogR replicates (from three to nine independent dose-response analysis, in the two different assays). 4) Calculated ΔΔlogR values by subtracting the averaged ligands’ ΔlogR FLIPR values with the averaged ligands’ ΔlogR DMR values.

[2] = target: T2, human sweet taste receptor (hT1R2/hT1R3) coupled to Gα15 (Homo sapiens, UniProt Q7RTX0+Q8TE23); assay: FLIPR calcium mobilization assay, R2/R3 U2OS cells transduced with Gα15 baculovirus
T2 construct: expressed in transfected cells
T2 sequence (Q8TE23 20-839): T1 sequence (Q8TE23 20-839)
T2 sequence (Q7RTX0 21-852): T1 sequence (Q7RTX0 21-852)
Method: The Gα15 coding sequence was inserted in the HindIII-NotI sites and recombinant virus was generated using the Bac-to-Bac system (Life Technologies). Virus was further amplified by propagation in Sf9 cells grown in suspension using Sf900-II media. Virus titers were determined by plaque assay on Sf9 cells.
Cells were gently mixed with the virus at a multiplicity of infection (MOI) of 5. Using a multidrop, 70 μl per well of the cell and virus mixture was dispensed in a 384-well clear bottom plate (Fisher). After 24 h of incubation in a humidified 37°C tissue culture incubator, trichostatin A was added to a final concentration of 0.3 μM and the cells were incubated for another 18–24 h at 34°C. On the day of the experiment, cells were loaded with 4 μM of the calcium indicator Fluo-4 AM (Invitrogen) in D-PBS for 1 h at room temperature. After washing the cells with D-PBS using a cell washer (BioTek) and a 30-minute rest time, the cell plate and the compound plate were transferred into the FLIPR-Tetra (Molecular Devices). […] Loading and the FLIPR assay were run as described above. When indicated, data for agonist dose-responses were normalized to data obtained with a maximum concentration of sucralose (1 mM) and then fitted and plotted using GraphPad Prism (San Diego, CA) and non-linear regression analysis.
as §2

parental U2OS cells = assay: DMR assay on parental U2OS cells (receptor-independent responses); conditions: highest concentration of sucralose (≥2 mM)
Method: as §1, with “DMR. The lidded Epic® 384 microplate and polypropylene compound plate (Corning) were loaded into the carousel of the Epic® reader, the target plate was washed with DMSO matched D-PBS using the Corning Epic® Liquid Handling Accessory (LHA) and equilibrated in 25 μl of DMSO matched D-PBS for 90 min.” for “DMR.”

Which “time of peak DMR response post-stimulation” value ([1]; R2/R3 U2OS cells) does the source give for `OC[C@H]1O[C@H](O[C@]2(CCl)O[C@H](CCl)[C@@H](O)[C@@H]2O)[C@H](O)[C@@H](O)[C@H]1Cl` [Sucralose] here?
Its value is roughly 4 min.

And the pEC50 ([1]; R2/R3 U2OS cells, peak DMR response, read-out: Activity in DMR assay EC50)?
Its pEC50 is 3.79.

And the EC50 ([1]; R2/R3 U2OS cells, peak DMR response, read-out: Activity in DMR assay pEC50 (converted))?
The EC50 was 150 µM.

What about the “dose-response curve's top asymptote in the DMR assay” value ([1]; relative to response at 1 mM sucralose) of the same compound?
The value was “around 122%”.

What about the “Activity in DMR assay Emax” value ([1]; top asymptote of dose-response normalized to 1 mM sucralose) of the same compound?
The value was 122.

What about the “dose-response curve's top asymptote in the FLIPR assay” value ([2]; Gα15, relative to response at 1 mM sucralose) of the same compound?
The value was 104%.

What about the “Activity in FLIPR assay Emax” value ([2]; Gα15, top asymptote of dose-response normalized to 1 mM sucralose) of the same compound?
The value was 104.

What about the pEC50 ([2]; R2/R3 U2OS cells expressing Gα15, read-out: Activity in FLIPR assay EC50) of the same compound?
Its pEC50 is 4.14.

And the EC50 ([2]; R2/R3 U2OS cells expressing Gα15, read-out: Activity in FLIPR assay pEC50 (converted))?
The EC50 was 69.3 µM.

And the “non-specific DMR effect on parental U2OS cells” value (parental U2OS cells)?
Its value is 20–40 pm.
